Test system: SKBR3 and BT474 cells
Experiment: Enhancement of MK-2206 in SKBR3 and BT474 proliferation
Format: cell-based, human
Settings: 0.125 or 0.375 nM NRG; single agent
Description: The ability of the SgGs to enhance AKT inhibition in unstimulated or NRG-stimulated SKBR3 cells was compared. An AKT inhibitor, MK-2206, was tested against the ErbB2 overexpressing cell lines SKBR3 (13I, 13J) and BT474 (13K, 13L). The indicated amounts of MK-2206 were applied to the cells and they were allowed to proliferate in complete medium containing 10% fetal bovine serum for 6 days (13I, 13K, 13L) or 3 days (13J). Cell content was measured using Cell Titer-Glo® (Promega).

`NC1(c2ccc(-c3nc4ccn5c(=O)[nH]nc5c4cc3-c3ccccc3)cc2)CCC1` [MK-2206] was tested, and the “ability to inhibit cell proliferation when cells stimulated with NRG” value was “dramatically reduced”.
